In article PMC11110727, “Exploiting thiol-functionalized benzosiloxaboroles for achieving diverse substitution patterns – synthesis, characterization and biological evaluation of promising antibacterial agents” (RSC Medicinal Chemistry, 2024):
Values after ≈ are worked out from the molar mass of the structure shown. Where two headings read alike, the source gives them in different places.

Assays:
S. aureus ATCC 6538P = test: Antibacterial activity: MIC/MBC determination and disc-diffusion; type: cell-based, Staphylococcus aureus; settings: S. aureus ATCC 6538P; for diameter of inhibition zone: disc-diffusion, — = zone not observed; for MBC / MIC: Staphylococcus aureus, ATCC6538P; for MIC: read-out: MIC
Summary of the method: (§1)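 Method: disc diffusion + MIC per EUCAST/CLSI; MBC/MFC per CLSI. Bacteria passaged twice on TSA, yeasts on Sabouraud agar, 24–48 h at 30 °C. Test compounds in DMSO.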

E. faecalis ATCC 29212 = test: as above; type: cell-based; settings: Enterococcus faecalis, ATCC29212, E. faecalis ATCC 29212; for MIC: read-out: MIC
Summary of the method: as §1

E. faecium ATCC 6057 = test: as above; type: cell-based; settings: Enterococcus faecium, ATCC6057, E. faecium ATCC 6057; for MIC: read-out: MIC
Summary of the method: as §1

[1] = test system: S. aureus ATCC 43300 MRSA; test: as above; type: cell-based; settings: Staphylococcus aureus, S. aureus ATCC 43300 MRSA; for MBC: read-out: MBC (first MBC where Eagle effect); for MIC: read-out: MIC
Summary of the method: as §1

[2] = test system: S. epidermidis ATCC 12228; test: as above; type: cell-based; settings: Staphylococcus epidermidis, ATCC12228, S. epidermidis ATCC 12228; for MIC: read-out: MIC
Summary of the method: as §1

E. cloacae DSM 6234 = test: Antibacterial activity: MIC/MBC, MIC with PAβN, disc-diffusion; type: cell-based, Enterobacter cloacae; settings: E. cloacae DSM 6234; for MIC: Enterobacter cloacae, DSM6234, read-out: MIC; for -fold reduction of MIC in the presence of PAβN: PAβN 20 μg mL^−1, MHB + 1 mM MgSO4
Summary of the method: (§2)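 Read-outs are disc-diffusion zones, broth-microdilution MICs and bactericidal concentrations (MBC), following EUCAST and CLSI guidance. The efflux contribution was probed by rerunning MICs with 20 μg mL^−1 PAβN in MgSO4-supplemented (1 mM) Mueller–Hinton II broth, a ≥4-fold decrease being significant.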

A. baumannii ATCC 19606 = test: as above; type: cell-based, Acinetobacter baumannii; settings: A. baumannii ATCC 19606; for MIC: read-out: MIC
Summary of the method: as §2

P. aeruginosa ATCC 27853 = test: as above; type: cell-based; settings: Pseudomonas aeruginosa, ATCC27853, P. aeruginosa ATCC 27853; for MIC: read-out: MIC
Summary of the method: as §2

[3] = test system: S. maltophilia ATCC 12714; test: as above; type: cell-based, Stenotrophomonas maltophilia; settings: S. maltophilia ATCC 12714; for MIC: read-out: MIC
Summary of the method: as §2

C. krusei ATCC 6258 = test: Antifungal activity: MIC/MFC, disc-diffusion; type: cell-based; settings: for diameter of inhibition zone: (-) = zone not observed, paper discs 9 mm; for MIC: read-out: MIC
Summary of the method: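 Compounds in DMSO were tested by disc diffusion and MIC determination following EUCAST/CLSI guidance, with fungicidal concentration (MFC) per CLSI. Strain first grown twice-checked on Sabouraud dextrose agar, 30 °C, 24–48 h.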

[4] = read-out: MBC (first MBC where Eagle effect)
[5] = Acinetobacter baumannii, ATCC19606
[6] = Stenotrophomonas maltophilia, ATCC12714
[7] = (-) = zone not observed, paper discs 9 mm

SMILES | diameter of inhibition zone (S. aureus ATCC 6538P) [mm] | MBC (S. aureus ATCC 6538P; [4]) [µg/mL] | MIC (S. aureus ATCC 6538P) [µg/mL] | MBC (E. faecalis ATCC 29212) [µg/mL] | MIC (E. faecalis ATCC 29212) [µg/mL] | MIC (E. faecium ATCC 6057) [µg/mL] | MBC [1] [µg/mL] | MIC [1] [µg/mL] | MBC [2] [µg/mL] | MIC [2] [µg/mL] | MIC (E. cloacae DSM 6234) [µg/mL] | MIC (A. baumannii ATCC 19606; [5]) [µg/mL] | MIC (P. aeruginosa ATCC 27853) [µg/mL] | MIC [3, 6] [µg/mL] | diameter of inhibition zone (C. krusei ATCC 6258; C. krusei ATCC 6258) [mm] | MIC (C. krusei ATCC 6258; Pichia kudriavzevii, ATCC6258) [µg/mL] | also measured
C[Si]1(C)OB(O)c2cc(F)c(S)c(F)c21 [Compound 1e, 5,7-Difluoro-6-mercapto-1,1-dimethylbenzo[c][1,2,5]oxasilaborol-3(1H)-ol] | 19 | 25 (≈ 102 µM) | 12.5 (≈ 50.8 µM) | 100 (≈ 406 µM) | 12.5 (≈ 50.8 µM) | 12.5 (≈ 50.8 µM) | 25 (≈ 102 µM) | 12.5 (≈ 50.8 µM) | 50 (≈ 203 µM) | 1.56 (≈ 6.34 µM) | > 400 | > 400 | > 400 | > 400 | 13 | 400 (≈ 1630 µM) | MBC (E. faecium ATCC 6057): 400 µg/mL (≈ 1630 µM)
C[Si]1(C)OB(O)c2cc(F)c(SCCC(=O)OCCCCCC[n+]3ccccc3)c(F)c21 [Compound 18, 1-(6-((3-((5,7-difluoro-3-hydroxy-1,1-dimethyl-1,3-dihydrobenzo[c][1,2,5]oxasilaborol-6-yl)thio)propanoyl)oxy)hexyl)pyridin-1-ium trifluoromethanesulfonate] | 19 | 100 | 25 |  | 200 | 100 | 200 | 50 | 200 | 50 | > 400 | > 400 | > 400 | > 400 |  | > 400 | 
C[Si]1(C)OB(O)c2cc(F)c(SC3CC(=O)N(c4ccc(F)cc4)C3=O)c(F)c21 (stereo not drawn) [Compound 14, 3-((5,7-Difluoro-3-hydroxy-1,1-dimethyl-1,3-dihydrobenzo[c][1,2,5]oxasilaborol-6-yl)thio)-1-(4-fluorophenyl)pyrrolidine-2,5-dione] | 22 |  | 50 (≈ 114 µM) |  | 25 (≈ 57.2 µM) | 50 (≈ 114 µM) |  | 50 (≈ 114 µM) |  | 50 (≈ 114 µM) | > 200 | > 200 | > 200 | 100 (≈ 229 µM) | 30 | 12.5 (≈ 28.6 µM) | MFC (C. krusei ATCC 6258; Pichia kudriavzevii, ATCC6258, C. krusei ATCC 6258): 100 µg/mL (≈ 229 µM)
CC(=O)CSc1ccc2c(c1F)[Si](C)(C)OB2O [Compound 22, 1-((7-Fluoro-3-hydroxy-1,1-dimethyl-1,3-dihydrobenzo[c][1,2,5]oxasilaborol-6-yl)thio)propan-2-one] | 25 | 200 (≈ 704 µM) | 1.56 (≈ 5.49 µM) | 400 (≈ 1410 µM) | 25 (≈ 88 µM) | 25 (≈ 88 µM) | 200 (≈ 704 µM) | 6.25 (≈ 22 µM) | 12.5 (≈ 44 µM) | 6.25 (≈ 22 µM) | > 400 | > 400 | > 400 | > 400 | 12 | 200 (≈ 704 µM) | 
C[Si]1(C)OB(O)c2cc(F)c(SCCC(=O)Nc3ncccn3)c(F)c21 [Compound 9, 3-((5,7-Difluoro-3-hydroxy-1,1-dimethyl-1,3-dihydrobenzo[c][1,2,5]oxasilaborol-6-yl)thio)-N-(pyrimidin-2-yl)propanamide] | 17 | 400 (≈ 1010 µM) | 25 (≈ 63.2 µM) |  | 200 (≈ 506 µM) | 200 (≈ 506 µM) | 400 (≈ 1010 µM) | 50 (≈ 126 µM) | 400 (≈ 1010 µM) | 50 (≈ 126 µM) | > 400 | > 400 | > 400 | > 400 |  | > 400 | 
C[Si]1(C)OB(O)c2cc(F)c(S(=O)(=O)Nc3ccc(F)cc3)c(F)c21 [Compound 28, 5,7-Difluoro-N-(4-fluorophenyl)-3-hydroxy-1,1-dimethyl-1,3-dihydrobenzo[c][1,2,5]oxasilaborole-6-sulfonamide] | 22 |  | 50 (≈ 129 µM) |  | 400 (≈ 1030 µM) | 400 (≈ 1030 µM) |  | 100 (≈ 258 µM) | 100 (≈ 258 µM) | 50 (≈ 129 µM) | > 400 | > 400 | > 400 | > 400 |  | > 400 | 
C[Si]1(C)OB(O)c2ccc(SC3CC(=O)NC3=O)c(F)c21 (stereo not drawn) [Compound 13, 3-((7-Fluoro-3-hydroxy-1,1-dimethyl-1,3-dihydrobenzo[c][1,2,5]oxasilaborol-6-yl)thio)pyrrolidine-2,5-dione] | 20 | 200 (≈ 615 µM) | 25 (≈ 76.9 µM) |  | 25 (≈ 76.9 µM) | 12.5 (≈ 38.4 µM) |  | 25 (≈ 76.9 µM) |  | 25 (≈ 76.9 µM) | 400 (≈ 1230 µM) | 50 (≈ 154 µM) | 200 (≈ 615 µM) | 50 (≈ 154 µM) |  | > 400 | -fold reduction of MIC in the presence of PAβN (E. cloacae DSM 6234): 4 -fold; diameter of inhibition zone (A. baumannii ATCC 19606; [7]): 20 mm; MBC (A. baumannii ATCC 19606; [5]): 100 µg/mL (≈ 308 µM); MBC (P. aeruginosa ATCC 27853): 400 µg/mL (≈ 1230 µM); diameter of inhibition zone [3, 7]: 17 mm; MBC [3, 6]: 200 µg/mL (≈ 615 µM)
C[Si]1(C)OB(O)c2ccc(SC3CC(=O)N(c4ccc(Br)c(C(F)(F)F)c4)C3=O)c(F)c21 (stereo not drawn) [Compound 17, 1-(4-Bromo-3-(trifluoromethyl)phenyl)-3-((7-fluoro-3-hydroxy-1,1-dimethyl-1,3-dihydrobenzo[c][1,2,5]oxasilaborol-6-yl)thio)pyrrolidine-2,5-dione] | 19 | 100 (≈ 182 µM) | 25 (≈ 45.6 µM) | 200 (≈ 365 µM) | 12.5 (≈ 22.8 µM) | 25 (≈ 45.6 µM) | 100 (≈ 182 µM) | 25 (≈ 45.6 µM) | 100 (≈ 182 µM) | 12.5 (≈ 22.8 µM) | > 200 | > 200 | > 200 | > 200 | 18 | 100 (≈ 182 µM) | 
C[Si]1(C)OB(O)c2ccc(SCCC(=O)OCCCCCC[n+]3ccccc3)c(F)c21 [Compound 19, 1-(6-((3-((7-Fluoro-3-hydroxy-1,1-dimethyl-1,3-dihydrobenzo[c][1,2,5]oxasilaborol-6-yl)thio)propanoyl)oxy)hexyl)pyridin-1-ium trifluoromethanesulfonate] | 20 | 100 | 25 | 400 | 100 | 100 | 100 | 25 | 100 | 25 | > 400 | > 400 | > 400 | > 400 |  | > 400 | 
C[Si]1(C)OB(O)c2cc(F)c(SCCC(=O)Nc3cnccn3)c(F)c21 [Compound 10, 3-((5,7-Difluoro-3-hydroxy-1,1-dimethyl-1,3-dihydrobenzo[c][1,2,5]oxasilaborol-6-yl)thio)-N-(pyrazin-2-yl)propanamide] | 24 | 400 (≈ 1010 µM) | 50 (≈ 126 µM) |  | 200 (≈ 506 µM) | 100 (≈ 253 µM) | 400 (≈ 1010 µM) | 50 (≈ 126 µM) | 400 (≈ 1010 µM) | 50 (≈ 126 µM) | > 400 | > 400 | > 400 | > 400 |  | > 400 | 
C[Si]1(C)OB(O)c2cc(F)c(SCCS(=O)(=O)c3ccccc3)c(F)c21 [Compound 20, 5,7-Difluoro-1,1-dimethyl-6-((2-(phenylsulfonyl)ethyl)thio)benzo[c][1,2,5]oxasilaborol-3(1H)-ol] | 30 | 12.5 (≈ 30.2 µM) | 3.12 (≈ 7.53 µM) |  | 100 (≈ 241 µM) | 100 (≈ 241 µM) | 200 (≈ 483 µM) | 6.25 (≈ 15.1 µM) | 400 (≈ 965 µM) | 25 (≈ 60.3 µM) | > 400 | > 400 | > 400 | > 400 |  | > 400 | MBC (S. aureus ATCC 6538P; value after the slash, read-out: second MBC (Eagle effect)): 200 µg/mL (≈ 483 µM); -fold reduction of MIC in the presence of PAβN (E. cloacae DSM 6234): 4 -fold
